Assay results taken from PMC3923664, “A Long-Chain Flavodoxin Protects Pseudomonas aeruginosa from Oxidative Stress and Host Bacterial Clearance” (PLoS Genetics, 2014).

Assays:
IsiB = molecular target: T1, IsiB (Nostoc sp. PCC 7119, UniProt P0A3E0); assay: UV-visible absorption spectrum of purified holoprotein; assay type: binding; conditions: co-purified prosthetic group; 50 mM Tris-HCl pH 8.5
T1 construct: recombinant, expressed in E. coli and purified after Fillat et al; long-chain flavodoxin
T1 sequence (P0A3E0 2-170): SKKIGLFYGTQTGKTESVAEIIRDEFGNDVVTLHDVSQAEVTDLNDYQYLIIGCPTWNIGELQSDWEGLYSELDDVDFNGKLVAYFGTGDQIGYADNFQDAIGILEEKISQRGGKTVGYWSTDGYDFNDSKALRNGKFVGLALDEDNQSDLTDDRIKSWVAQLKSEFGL

FldA = molecular target: T2, FldA (Escherichia coli, UniProt P61949); assay: as above; assay type: binding; conditions: co-purified prosthetic group; 50 mM Tris-HCl pH 8.5
T2 construct: purified; preparation not described
T2 sequence (P61949 2-176): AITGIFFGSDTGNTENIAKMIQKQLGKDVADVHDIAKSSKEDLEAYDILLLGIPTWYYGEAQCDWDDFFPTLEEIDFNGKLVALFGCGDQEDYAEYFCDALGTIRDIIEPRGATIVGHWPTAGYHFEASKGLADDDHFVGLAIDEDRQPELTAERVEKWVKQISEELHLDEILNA

## Cc1cc2nc3c(=O)[nH]c(=O)nc-3n(C[C@H](O)[C@H](O)[C@H](O)COP(=O)(O)O)c2cc1C [FMN]
IsiB
  UV-visible absorption spectrum of purified holoprotein: is strongly red-shifted in the flavodoxins from Anabaena and E. coli (Figure 2A)
FldA
  UV-visible absorption spectrum of purified holoprotein: is strongly red-shifted in the flavodoxins from Anabaena and E. coli (Figure 2A)
